Data reported in PMC12566703, “Design, Synthesis, In Vitro and In Silico Biological Evaluation of New Pyridine-2,5-Dicarboxylates Esters Bearing Natural Source Fragments as Anti-Trypanosomatid Agents” (Pharmaceutics, 2025).
Several values for one entry are separate records, joined by “and”; a condition that tells them apart may be missing. Identical values can stand only once. Like-named read-outs stand apart in the source and are kept apart here.

How the values were obtained:
T. cruzi = details: read-out: IC50, trypanocidal activity, cited from earlier work
Leishmania = system: Leishmania; set-up: method as in doi:10.1016/j.molstruc.2018.11.017; details: natural product scaffold of Figure 1B; read-out: IC50, leishmanicidal activity; cited from earlier work
L. mexicana = system: L. mexicana; set-up: method as in doi:10.2174/1573407213666170405121810; details: pyridine compound of Figure 1A; read-out: IC50, leishmanicidal activity; cited from earlier work
[1] = system: T. cruzi (A1) epimastigotes; test: In vitro trypanocidal activity, Alamar Blue assay, 48 h; assay type: cell-based, Trypanosoma cruzi; details: for Selectivity Index T. cruzi A1: CC50 (J774.2)/IC50; for IC50: 48 h, epimastigotes, A1 strain, read-out: T. cruzi IC50 (µM ± SD) A1
Procedure: (§1) Both strains were maintained in liver infusion tryptose (LIT) medium supplemented with 10% FBS and 0.1% penicillin-streptomycin. They were preserved by transferring 1 × 10^6 parasites/mL into a new culture medium every week. […] The metabolic activity was determined by the Alamar Blue assay. Briefly, after the incubation period, 20 µL of 2.5 mM resazurin solution was added to each well and incubated for 3 h. Three independent experiments were performed in triplicate. The half-maximum inhibitory concentration (IC50) was determined using probit analysis.

[2] = system: T. cruzi (NINOA) epimastigotes; test: as above; assay type: cell-based, Trypanosoma cruzi; details: for IC50: 48 h, read-out: T. cruzi IC50 (µM ± SD) NINOA; for IC50 / Trypanocidal activity class in words, NINOA strain: epimastigotes, NINOA strain; for Trypanocidal activity class in words, NINOA strain: classes by IC50; for Selectivity Index T. cruzi NINOA: CC50 (J774.2)/IC50
Procedure: as §1

[3] = system: L. mexicana (MHOM/MX/2017/UABJO17FCQEPS) (FCQEPS) promastigotes; test: In vitro leishmanicidal activity, MTT method, 48 h; assay type: cell-based, Leishmania mexicana; details: for IC50: 48 h, read-out: L. mexicana IC50 (µM ± SD) FCQEPS; for IC50 / Leishmanicidal activity class in words, FCQEPS strain: promastigotes, FCQEPS strain; for Selectivity Index L. mexicana FCQEPS: CC50 (J774.2)/IC50; for Leishmanicidal activity class in words, FCQEPS strain: classes by IC50
Procedure: (§2) To determine the leishmanicidal activity of pyridine-2,5-dicarboxylates, the parasites, in their logarithmic growth phase (5 × 10^5 parasites/mL), were cultured in 96-well microliter plates with the corresponding pyridine-2,5-dicarboxylate compound at different concentrations (0.78–100 µM). Compounds were dissolved in DMSO in a final volume of 200 µL for 48 h at 26 °C. Parasites treated with DMSO (0.2%) were used as a negative control, while treatments with Glucantime and Amphotericin B, at the same concentrations, were used as positive controls. The metabolic activity of the cells was determined using the 3-(4,5-Dimethylthiazol-2-yl)-2,5-diphenyltetrazolium bromide (MTT) method. IC50 was determined using probit analysis. Three independent experiments were performed in triplicate, and the data were analyzed for statistical significance (p < 0.05) using Biostat 5.3.0 software.

[4] = system: L. mexicana (MNYC/BZ/62/M379) (M379) promastigotes; test: In vitro leishmanicidal activity, MTT method, 48 h; assay type: cell-based, Leishmania mexicana; details: for IC50: 48 h, read-out: L. mexicana IC50 (µM ± SD) M379; for IC50 / Leishmanicidal activity class in words, M379 strain: promastigotes, M379 strain; for Leishmanicidal activity class in words, M379 strain: classes by IC50; for Selectivity Index L. mexicana M379: CC50 (J774.2)/IC50
Procedure: as §2

[5] = Cytotoxicity assay, MTT method, 48 h; assay type: cell-based, murine; details: mouse, J774.2 macrophage cells, J774.2 cell line, read-out: Macrophage J774.2 CC50 (µM ± SD)
Procedure: (§3) A cytotoxicity assay was performed using the murine macrophage J774.2 cell line, which was recloned from the original ascites and solid tumor J774.1 (according to the manufacturer). The cells were cultured in RPMI medium supplemented with 10% SBF, 100 U […] penicillin, 100 µg/mL streptomycin, and glutamine (2 mM), and 5% CO2 atmosphere. The medium was changed every 2–3 days. Macrophages were used at 1 × 10^6 cells and were incubated with compounds at different concentrations (0.75–100 µM, respectively) at 37 °C for 48 h in a 5% CO2 atmosphere. DMSO was used as a negative control (0.2%). The metabolic activity of macrophages was determined by the MTT method. The percentage of cell viability was calculated, and the half-maximal cytotoxic concentration (CC50) was determined using probit analysis. Three independent assays were conducted in triplicate.

[6] = system: murine macrophage J774.2 cell line; test: Cytotoxicity assay, MTT method, 48 h; assay type: cell-based; details: read-out: Macrophage J774.2 CC50 (µM ± SD)
Procedure: as §3

## Clc1ccc(-c2csc(N/N=C/c3ccccn3)n2)cc1Cl [Compound 11]
T. cruzi; pyridine compound of Figure 1A
  IC50: 4 µM

## CC1=CC[C@H](C(C)(C)NC(=S)N/N=C/c2ccc([N+](=O)[O-])cc2)CC1 [Compound 8d]
Leishmania
  IC50: 2.4 µM

## Cc1ccc(O)c(C(=O)c2cnc3[nH]nc(C)c3c2)c1 [Compound 7]
L. mexicana
  IC50: 31 µM

## CCOC(=O)c1nc(C)c(C(=O)OCCC(C)CCC=C(C)C)cc1-c1ccc(C)cc1 (stereo not shown) [Compound 11b]
[1]
  Selectivity Index T. cruzi A1: 3.3
[1]; Trypanosoma cruzi
  IC50: 51.6 ± 0.59 µM
[2]; Trypanosoma cruzi
  IC50: > 200 µM
[2]
  Trypanocidal activity class in words, NINOA strain: inactive
[3]; Leishmania mexicana
  IC50: > 200 µM
[4]; Leishmania mexicana
  IC50: > 200 µM
[4]
  Leishmanicidal activity class in words, M379 strain: did not have antiparasitic activity
[5]
  CC50 at 48 h: 169 µM
[6]
  CC50: 169.8 ± 1.3 µM

## CC1=CC[C@@H](C(C)(C)Nc2nnc(-c3ccc(C)cc3)s2)CC1 [TDZ 2]
T. cruzi; natural product scaffold of Figure 1B
  IC50: 1.3 µM

## CCOC(=O)c1nc(C)c(C(=O)OCC23CC4CC(CC(C4)C2)C3)cc1-c1ccccc1 [Compound 10a]
[1]
  Selectivity Index T. cruzi A1: >4.3
[1]; Trypanosoma cruzi
  IC50: 46.9 µM
[2]
  Selectivity Index T. cruzi NINOA: >1.9
  IC50: 105 ± 1.34 µM
[2]; Trypanosoma cruzi
  IC50: 105 µM
[3]
  Selectivity Index L. mexicana FCQEPS: >1.2
  IC50: 161.53 ± 0.03 µM
[3]; Leishmania mexicana
  IC50: ≤ 162 µM
[4]
  Selectivity Index L. mexicana M379: >2.4
  IC50: 82.19 ± 0.01 µM
[4]; Leishmania mexicana
  IC50: ≤ 162 µM
[5]
  CC50 at 48 h: > 200 µM

## CCOC(=O)c1nc(C)c(C(=O)OCc2ccc(C)cc2)cc1-c1ccc(F)cc1 [Compound 5c]
[1]
  Selectivity Index T. cruzi A1: >9.6
[1]; Trypanosoma cruzi
  IC50: 20.8 ± 0.1 µM
[2]
  Selectivity Index T. cruzi NINOA: >1
[2]; Trypanosoma cruzi
  IC50: > 200 µM
[3]
  Selectivity Index L. mexicana FCQEPS: >1
  Leishmanicidal activity class in words, FCQEPS strain: abolished their leishmanicidal activity
[3]; Leishmania mexicana
  IC50: > 200 µM
[4]
  Selectivity Index L. mexicana M379: >1
  Leishmanicidal activity class in words, M379 strain: inactive
[4]; Leishmania mexicana
  IC50: > 200 µM
[5]
  CC50 at 48 h: > 200 µM

## CCOC(=O)c1nc(C)c(C(=O)OCc2ccccc2)cc1-c1ccc(C)cc1 [Compound 4b, 5-Benzyl 2-ethyl 6-methyl-3-(p-tolyl)pyridine-2,5-dicarboxylate]
[1]
  Selectivity Index T. cruzi A1: >3.8
  IC50: 52.6 ± 1.87 µM
[1]; Trypanosoma cruzi
  IC50: ≤ 56.7 µM
[2]
  Selectivity Index T. cruzi NINOA: >7.5
[3]
  Selectivity Index L. mexicana FCQEPS: >1
[3]; Leishmania mexicana
  IC50: > 200 µM
[4]
  Selectivity Index L. mexicana M379: >1
  Leishmanicidal activity class in words, M379 strain: did not have antiparasitic activity
[4]; Leishmania mexicana
  IC50: > 200 µM
[5]
  CC50 at 48 h: > 200 µM

## CCOC(=O)c1nc(C)c(C(=O)OCCC(C)CCC=C(C)C)cc1-c1ccc(F)cc1 (stereo not shown) [Compound 11c]
[1]
  Selectivity Index T. cruzi A1: >8.0
[1]; Trypanosoma cruzi
  IC50: 24.9 ± 4.1 µM
[2]
  Selectivity Index T. cruzi NINOA: >2.5
[2]; Trypanosoma cruzi
  IC50: 79.9 ± 2.6 µM
[3]
  Selectivity Index L. mexicana FCQEPS: >1
  Leishmanicidal activity class in words, FCQEPS strain: abolished their leishmanicidal activity
[3]; Leishmania mexicana
  IC50: > 200 µM
[4]
  Selectivity Index L. mexicana M379: >1
  Leishmanicidal activity class in words, M379 strain: inactive
[4]; Leishmania mexicana
  IC50: > 200 µM
[5]
  CC50 at 48 h: > 200 µM

## CNC[C@H](O)[C@@H](O)[C@H](O)[C@H](O)CO.[O]=[Sb](=[O])[OH] [Glc, Glucantime, reference compound]
[3]
  Selectivity Index L. mexicana FCQEPS: 2.2
  IC50: 125 ± 11.6 µM
[3]; listed as Glucantime
  Selectivity Index L. mexicana FCQEPS: 2.18 and 2
  IC50: > 125 µM
[4]
  Selectivity Index L. mexicana M379: 2.0
  IC50: 134 ± 4.32 µM
[4]; listed as Glucantime
  Selectivity Index L. mexicana M379: 2.03
  IC50: 134 µM and > 125 µM
[6]
  CC50: 273 µM

## CCOC(=O)c1cc(-c2ccc(C)cc2)c(C(=O)OCC)nc1C [Compound 3b]
[1]
  Selectivity Index T. cruzi A1: >1.9
[1]; Trypanosoma cruzi
  IC50: 106 ± 1.16 µM
[2]
  Selectivity Index T. cruzi NINOA: >3.3
  IC50: 59.4 ± 1.45 µM
[2]; Trypanosoma cruzi
  IC50: 59.3 µM
[3]
  Selectivity Index L. mexicana FCQEPS: >1
[3]; Leishmania mexicana
  IC50: > 200 µM
[4]
  Selectivity Index L. mexicana M379: >1
  Leishmanicidal activity class in words, M379 strain: did not have antiparasitic activity
[4]; Leishmania mexicana
  IC50: > 200 µM
[5]
  CC50 at 48 h: > 200 µM

## CCOC(=O)c1nc(C)c(C(=O)O[C@@H]2C[C@@H](C)CC[C@@H]2C(C)C)cc1-c1ccccc1 [Compound 8a]
[1]
  Selectivity Index T. cruzi A1: >1
[1]; Trypanosoma cruzi
  IC50: > 200 µM
[2]
  Selectivity Index T. cruzi NINOA: >1
  Trypanocidal activity class in words, NINOA strain: inactive
[3]
  Selectivity Index L. mexicana FCQEPS: >2.4
[3]; Leishmania mexicana
  IC50: 82.7 µM
[4]
  Selectivity Index L. mexicana M379: >2.5
[4]; Leishmania mexicana
  IC50: 79.1 µM
[5]
  CC50 at 48 h: > 200 µM

## CCOC(=O)c1nc(C)c(C(=O)OC2C[C@@H]3CC[C@@]2(C)C3(C)C)cc1-c1ccc(F)cc1 (stereo partly shown) [Compound 9c]
[1]
  Selectivity Index T. cruzi A1: >1
[1]; Trypanosoma cruzi
  IC50: > 200 µM
[2]
  Selectivity Index T. cruzi NINOA: >7.6
  IC50: 26.2 ± 1.55 µM
[2]; Trypanosoma cruzi
  IC50: 26.2 µM
[3]
  Selectivity Index L. mexicana FCQEPS: >1
[3]; Leishmania mexicana
  IC50: > 200 µM
[4]
  Selectivity Index L. mexicana M379: >1
  Leishmanicidal activity class in words, M379 strain: inactive
[4]; Leishmania mexicana
  IC50: > 200 µM
[5]
  CC50 at 48 h: > 200 µM

## CCOC(=O)c1nc(C)c(C(=O)OC/C=C(\C)CCC=C(C)C)cc1-c1ccc(F)cc1 [Compound 12c]
[1]
  Selectivity Index T. cruzi A1: >4.0
[1]; Trypanosoma cruzi
  IC50: 50.1 ± 1 µM
[2]
  Selectivity Index T. cruzi NINOA: >4.1
[2]; Trypanosoma cruzi
  IC50: 49.1 ± 2.5 µM
[3]
  Selectivity Index L. mexicana FCQEPS: >1.7
[3]; Leishmania mexicana
  IC50: 114 ± 7.03 µM
[4]
  Selectivity Index L. mexicana M379: >2.3
[4]; Leishmania mexicana
  IC50: 85.98 ± 0.02 µM
[5]
  CC50 at 48 h: > 200 µM
